Measured values reported in the NIST ThermoML archive (doi:10.1016/j.jct.2005.09.003).
Numbers after ± are expanded uncertainties.

Assay: xn = mol fraction of the nth substance listed
Conditions: Liquid

CCCCCCCl [1-chlorohexane] + CCCCCCCC
mass density [kg/m3]
Conditions | x2 = 0 | x2 = 0.1016 | x2 = 0.1996 | x2 = 0.3153 | x2 = 0.3948 | x2 = 0.4862 | x2 = 0.5938 | x2 = 0.6966 | x2 = 0.794 | x2 = 0.9001
308.15 K, 39620 kPa | – | – | – | – | – | – | – | – | – | 735.19 ± 2.2
318.15 K, 100 kPa | 854.58 ± 0.46 | 834.04 ± 0.48 | 814.96 ± 0.48 | 793.28 ± 0.51 | 778.92 ± 0.52 | 762.93 ± 0.54 | 744.78 ± 0.56 | 728.11 ± 0.58 | 712.89 ± 0.61 | 696.93 ± 0.63
318.15 K, 2130 kPa | 856.27 ± 0.49 | 835.95 ± 0.52 | 816.81 ± 0.53 | 795.21 ± 0.56 | 780.76 ± 0.58 | 764.83 ± 0.61 | 746.83 ± 0.64 | 730.05 ± 0.66 | 714.94 ± 0.69 | 698.9 ± 0.72
318.15 K, 4150 kPa | 858.19 ± 0.52 | 837.89 ± 0.55 | 818.74 ± 0.58 | 797.18 ± 0.62 | 782.71 ± 0.64 | 766.77 ± 0.67 | 748.78 ± 0.71 | 732.01 ± 0.74 | 716.9 ± 0.77 | 700.85 ± 0.8
318.15 K, 6180 kPa | 860.06 ± 0.55 | 839.78 ± 0.59 | 820.64 ± 0.62 | 799.07 ± 0.67 | 784.6 ± 0.7 | 768.67 ± 0.74 | 750.71 ± 0.78 | 733.92 ± 0.82 | 718.79 ± 0.85 | 702.75 ± 0.89
318.15 K, 8210 kPa | 861.91 ± 0.58 | 841.62 ± 0.63 | 822.49 ± 0.67 | 800.94 ± 0.72 | 786.48 ± 0.76 | 770.55 ± 0.8 | 752.56 ± 0.85 | 735.77 ± 0.89 | 720.67 ± 0.93 | 704.6 ± 0.98
318.15 K, 10230 kPa | 863.73 ± 0.61 | 843.46 ± 0.67 | 824.34 ± 0.72 | 802.79 ± 0.78 | 788.32 ± 0.82 | 772.38 ± 0.86 | 754.41 ± 0.92 | 737.61 ± 0.97 | 722.49 ± 1 | 706.41 ± 1.1
318.15 K, 11250 kPa | 864.62 ± 0.63 | 844.35 ± 0.69 | 825.23 ± 0.74 | 803.67 ± 0.8 | 789.21 ± 0.85 | 773.28 ± 0.9 | 755.31 ± 0.95 | 738.5 ± 1 | 723.39 ± 1.1 | 707.3 ± 1.1
318.15 K, 12260 kPa | 865.5 ± 0.65 | 845.27 ± 0.7 | 826.11 ± 0.76 | 804.57 ± 0.83 | 790.11 ± 0.87 | 774.2 ± 0.93 | 756.2 ± 0.98 | 739.4 ± 1 | 724.3 ± 1.1 | 708.21 ± 1.1
318.15 K, 14290 kPa | 867.28 ± 0.68 | 847.01 ± 0.74 | 827.89 ± 0.81 | 806.35 ± 0.88 | 791.88 ± 0.93 | 775.94 ± 0.99 | 757.98 ± 1.1 | 741.15 ± 1.1 | 726.04 ± 1.2 | 709.95 ± 1.2
318.15 K, 16310 kPa | 869 ± 0.71 | 848.75 ± 0.78 | 829.61 ± 0.85 | 808.09 ± 0.93 | 793.61 ± 0.99 | 777.66 ± 1.1 | 759.69 ± 1.1 | 742.89 ± 1.2 | 727.75 ± 1.2 | 711.66 ± 1.3
318.15 K, 18340 kPa | 870.66 ± 0.74 | 850.43 ± 0.82 | 831.3 ± 0.9 | 809.76 ± 0.98 | 795.29 ± 1 | 779.35 ± 1.1 | 761.37 ± 1.2 | 744.57 ± 1.3 | 729.42 ± 1.3 | 713.3 ± 1.4
318.15 K, 20370 kPa | 872.33 ± 0.77 | 852.13 ± 0.86 | 832.97 ± 0.94 | 811.43 ± 1 | 796.96 ± 1.1 | 781.01 ± 1.2 | 763.03 ± 1.2 | 746.2 ± 1.3 | 731.08 ± 1.4 | 714.96 ± 1.5
318.15 K, 22390 kPa | 873.95 ± 0.8 | 853.71 ± 0.89 | 834.6 ± 0.98 | 813.06 ± 1.1 | 798.59 ± 1.1 | 782.65 ± 1.2 | 764.67 ± 1.3 | 747.82 ± 1.4 | 732.69 ± 1.5 | 716.55 ± 1.6
318.15 K, 24420 kPa | 875.54 ± 0.83 | 855.32 ± 0.93 | 836.2 ± 1 | 814.65 ± 1.1 | 800.17 ± 1.2 | 784.23 ± 1.3 | 766.24 ± 1.4 | 749.39 ± 1.5 | 734.25 ± 1.6 | 718.09 ± 1.6
318.15 K, 26450 kPa | 877.12 ± 0.86 | 856.9 ± 0.96 | 837.77 ± 1.1 | 816.23 ± 1.2 | 801.75 ± 1.3 | 785.8 ± 1.4 | 767.8 ± 1.4 | 750.95 ± 1.5 | 735.8 ± 1.6 | 719.69 ± 1.7
318.15 K, 28470 kPa | 878.67 ± 0.89 | 858.45 ± 1 | 839.34 ± 1.1 | 817.78 ± 1.2 | 803.29 ± 1.3 | 787.34 ± 1.4 | 769.34 ± 1.5 | 752.48 ± 1.6 | 737.32 ± 1.7 | 721.17 ± 1.8
318.15 K, 29490 kPa | 879.43 ± 0.9 | 859.22 ± 1 | 840.08 ± 1.1 | 818.54 ± 1.2 | 804.05 ± 1.3 | 788.09 ± 1.4 | 770.08 ± 1.5 | 753.23 ± 1.6 | 738.07 ± 1.7 | 721.87 ± 1.8
318.15 K, 30500 kPa | 880.19 ± 0.91 | 859.99 ± 1 | 840.84 ± 1.1 | 819.31 ± 1.3 | 804.81 ± 1.4 | 788.85 ± 1.5 | 770.85 ± 1.6 | 753.99 ± 1.7 | 738.83 ± 1.8 | 722.64 ± 1.9
318.15 K, 32530 kPa | 881.7 ± 0.94 | 861.5 ± 1.1 | 842.34 ± 1.2 | 820.8 ± 1.3 | 806.31 ± 1.4 | 790.33 ± 1.5 | 772.31 ± 1.6 | 755.45 ± 1.7 | 740.27 ± 1.8 | 724.08 ± 1.9
318.15 K, 34550 kPa | 883.17 ± 0.96 | 862.97 ± 1.1 | 843.8 ± 1.2 | 822.26 ± 1.4 | 807.75 ± 1.5 | 791.8 ± 1.6 | 773.76 ± 1.7 | 756.87 ± 1.8 | 741.69 ± 1.9 | 725.5 ± 2
318.15 K, 36580 kPa | 884.63 ± 0.99 | 864.41 ± 1.1 | 845.26 ± 1.3 | 823.71 ± 1.4 | 809.2 ± 1.5 | 793.22 ± 1.6 | 775.19 ± 1.8 | 758.28 ± 1.9 | 743.11 ± 2 | 726.91 ± 2.1
318.15 K, 38600 kPa | 886.04 ± 1 | 865.86 ± 1.2 | 846.68 ± 1.3 | 825.13 ± 1.4 | 810.6 ± 1.6 | 794.61 ± 1.7 | 776.59 ± 1.8 | 759.68 ± 1.9 | 744.49 ± 2 | 728.26 ± 2.2
318.15 K, 39620 kPa | 886.76 ± 1 | 866.55 ± 1.2 | 847.39 ± 1.3 | 825.83 ± 1.5 | 811.31 ± 1.6 | 795.32 ± 1.7 | 777.27 ± 1.8 | 760.4 ± 2 | 745.19 ± 2.1 | –
